Experimental data from PubChem BioAssay (NCI).
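Cells were grown in 96-well plates and exposed to each compound for 48 hours at five concentrations; endpoints were interpolated linearly between bracketing concentrations, or set to the highest concentration if not reached. Here, GI50 denotes the concentration required for 50% inhibition of growth. TGI marks complete inhibition of growth.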

What was measured:
Assay in all cases: NCI anticancer screen, dose series, 48 h
HCC-2998 colon = system: HCC-2998 colon
A498 renal = system: A498 renal
BT-549 breast = system: BT-549 breast
MDA-MB-435 = system: MDA-MB-435
DU-145 prostate = system: DU-145 prostate
HS 578T breast = system: HS 578T breast
LOX IMVI melanoma = system: LOX IMVI melanoma
HCT-15 colon = system: HCT-15 colon
MDA-MB-231 breast = system: MDA-MB-231 breast
SW-620 colon = system: SW-620 colon
OVCAR-5 ovarian = system: OVCAR-5 ovarian
MALME-3M melanoma = system: MALME-3M melanoma
SK-OV-3 ovarian = system: SK-OV-3 ovarian
TK-10 renal = system: TK-10 renal
KM12 colon = system: KM12 colon
CCRF-CEM leukemia = system: CCRF-CEM leukemia
SF-268 CNS = system: SF-268 CNS
HL-60(TB) leukemia = system: HL-60(TB) leukemia
SR leukemia = system: SR leukemia
SNB-75 CNS = system: SNB-75 CNS
NCI-H460 lung = system: NCI-H460 lung
MCF7 breast = system: MCF7 breast
EKVX NSCLC = system: EKVX NSCLC
MOLT-4 leukemia = system: MOLT-4 leukemia
UACC-257 melanoma = system: UACC-257 melanoma
SF-295 CNS = system: SF-295 CNS
OVCAR-8 ovarian = system: OVCAR-8 ovarian
UACC-62 melanoma = system: UACC-62 melanoma
ACHN renal = system: ACHN renal
786-0 renal = system: 786-0 renal
SK-MEL-28 melanoma = system: SK-MEL-28 melanoma
OVCAR-4 ovarian = system: OVCAR-4 ovarian
HT29 colon = system: HT29 colon
NCI-H522 lung = system: NCI-H522 lung
A549 NSCLC = system: A549 NSCLC
K-562 leukemia = system: K-562 leukemia
RXF 393 renal = system: RXF 393 renal
T-47D breast = system: T-47D breast
RPMI-8226 leukemia = system: RPMI-8226 leukemia
M14 melanoma = system: M14 melanoma
SK-MEL-5 melanoma = system: SK-MEL-5 melanoma
NCI-H23 lung = system: NCI-H23 lung
OVCAR-3 ovarian = system: OVCAR-3 ovarian
HCT-116 colon = system: HCT-116 colon
CAKI-1 renal = system: CAKI-1 renal
SN12C renal = system: SN12C renal
SF-539 CNS = system: SF-539 CNS
NCI-H226 lung = system: NCI-H226 lung
SK-MEL-2 melanoma = system: SK-MEL-2 melanoma
COLO 205 colon = system: COLO 205 colon
NCI/ADR-RES ovarian = system: NCI/ADR-RES ovarian
UO-31 renal = system: UO-31 renal
IGROV1 ovarian = system: IGROV1 ovarian
SNB-19 CNS = system: SNB-19 CNS
U251 CNS = system: U251 CNS
HOP-62 NSCLC = system: HOP-62 NSCLC
PC-3 prostate = system: PC-3 prostate
HOP-92 NSCLC = system: HOP-92 NSCLC

CC(=O)OC1C=CC(OC(C)=O)C2C1[C@H]1C3C=CC=CC3[C@@H]2S1=O (stereo partly specified)
GI50 (HCC-2998 colon): 94.2 µg/mL | GI50 (A498 renal): 53.7 µg/mL | GI50 (BT-549 breast): 59.8 µg/mL | GI50 (MDA-MB-435): 40.2 µg/mL

O=C(C1CCCCC1)[C@@H]1[C@]2(C(=O)NC3CCCCC32)[C@@H]2CCCN2[C@@]12C(=O)NC1CCC(Cl)CC12 (stereo partly specified)
GI50 (DU-145 prostate): 128 µM | TGI (DU-145 prostate): 259 µM | GI50 (HS 578T breast): 153 µM | TGI (HS 578T breast): 422 µM | GI50 (LOX IMVI melanoma): 103 µM | TGI (LOX IMVI melanoma): 253 µM | GI50 (HCC-2998 colon): 135 µM | TGI (HCC-2998 colon): 293 µM | GI50 (HCT-15 colon): 56.5 µM | TGI (HCT-15 colon): 211 µM | GI50 (MDA-MB-231 breast): 70.3 µM | TGI (MDA-MB-231 breast): 224 µM | GI50 (SW-620 colon): 98.6 µM | TGI (SW-620 colon): 238 µM | GI50 (OVCAR-5 ovarian): 149 µM | TGI (OVCAR-5 ovarian): 284 µM | GI50 (MALME-3M melanoma): 132 µM | TGI (MALME-3M melanoma): 330 µM | GI50 (SK-OV-3 ovarian): 145 µM | TGI (SK-OV-3 ovarian): 284 µM | GI50 (TK-10 renal): 266 µM | TGI (TK-10 renal): 448 µM | GI50 (KM12 colon): 130 µM | TGI (KM12 colon): 273 µM | GI50 (CCRF-CEM leukemia): 32.3 µM | TGI (CCRF-CEM leukemia): 137 µM | GI50 (SF-268 CNS): 119 µM | TGI (SF-268 CNS): 288 µM | GI50 (HL-60(TB) leukemia): 35.3 µM | TGI (HL-60(TB) leukemia): 176 µM | GI50 (SR leukemia): 30.8 µM | TGI (SR leukemia): 124 µM | GI50 (SNB-75 CNS): 58.1 µM | TGI (SNB-75 CNS): 256 µM | GI50 (NCI-H460 lung): 134 µM | TGI (NCI-H460 lung): 308 µM | GI50 (MCF7 breast): 41.8 µM | TGI (MCF7 breast): 185 µM | GI50 (EKVX NSCLC): 69.9 µM | TGI (EKVX NSCLC): 217 µM | GI50 (MOLT-4 leukemia): 32.2 µM | TGI (MOLT-4 leukemia): 213 µM | GI50 (UACC-257 melanoma): 135 µM | TGI (UACC-257 melanoma): 288 µM | GI50 (SF-295 CNS): 149 µM | TGI (SF-295 CNS): 299 µM | GI50 (OVCAR-8 ovarian): 162 µM | TGI (OVCAR-8 ovarian): 394 µM | GI50 (UACC-62 melanoma): 91.9 µM | TGI (UACC-62 melanoma): 215 µM | GI50 (ACHN renal): 103 µM | TGI (ACHN renal): 222 µM | GI50 (786-0 renal): 151 µM | TGI (786-0 renal): 319 µM | GI50 (SK-MEL-28 melanoma): 129 µM | TGI (SK-MEL-28 melanoma): 278 µM | GI50 (OVCAR-4 ovarian): 64.4 µM | TGI (OVCAR-4 ovarian): 218 µM | GI50 (HT29 colon): 64.4 µM | TGI (HT29 colon): 199 µM | GI50 (NCI-H522 lung): 120 µM | TGI (NCI-H522 lung): 281 µM | GI50 (A498 renal): 130 µM | TGI (A498 renal): 265 µM | GI50 (A549 NSCLC): 135 µM | TGI (A549 NSCLC): 379 µM | GI50 (K-562 leukemia): 41.2 µM | TGI (K-562 leukemia): 220 µM | GI50 (RXF 393 renal): 113 µM | TGI (RXF 393 renal): 301 µM | GI50 (T-47D breast): 107 µM | TGI (T-47D breast): 279 µM | GI50 (RPMI-8226 leukemia): 32.6 µM | TGI (RPMI-8226 leukemia): 103 µM | GI50 (M14 melanoma): 116 µM | TGI (M14 melanoma): 253 µM | GI50 (SK-MEL-5 melanoma): 110 µM | TGI (SK-MEL-5 melanoma): 234 µM | GI50 (NCI-H23 lung): 119 µM | TGI (NCI-H23 lung): 274 µM | GI50 (BT-549 breast): 145 µM | TGI (BT-549 breast): 286 µM | GI50 (OVCAR-3 ovarian): 78.2 µM | TGI (OVCAR-3 ovarian): 210 µM | GI50 (MDA-MB-435): 112 µM | TGI (MDA-MB-435): 245 µM | GI50 (HCT-116 colon): 71.6 µM | TGI (HCT-116 colon): 208 µM | GI50 (CAKI-1 renal): 80.8 µM | TGI (CAKI-1 renal): 225 µM | GI50 (SN12C renal): 61.2 µM | TGI (SN12C renal): 197 µM | GI50 (SF-539 CNS): 121 µM | TGI (SF-539 CNS): 255 µM | GI50 (NCI-H226 lung): 179 µM | TGI (NCI-H226 lung): 411 µM | GI50 (SK-MEL-2 melanoma): 147 µM | TGI (SK-MEL-2 melanoma): 321 µM | GI50 (COLO 205 colon): 158 µM | TGI (COLO 205 colon): 323 µM | GI50 (NCI/ADR-RES ovarian): 127 µM | TGI (NCI/ADR-RES ovarian): 310 µM | GI50 (UO-31 renal): 54.1 µM | TGI (UO-31 renal): 226 µM | GI50 (IGROV1 ovarian): 53.2 µM | TGI (IGROV1 ovarian): 202 µM | GI50 (SNB-19 CNS): 148 µM | TGI (SNB-19 CNS): 299 µM | GI50 (U251 CNS): 148 µM | TGI (U251 CNS): 316 µM | GI50 (HOP-62 NSCLC): 123 µM | TGI (HOP-62 NSCLC): 287 µM

O=NC1C(Cl)C2CC1C1C(Br)C(Br)CC21 (stereo unspecified)
TGI (DU-145 prostate): > 100 µM | TGI (HS 578T breast): > 100 µM | TGI (LOX IMVI melanoma): > 100 µM | TGI (HCT-15 colon): > 100 µM | TGI (MDA-MB-231 breast): > 100 µM | TGI (SW-620 colon): > 100 µM | TGI (OVCAR-5 ovarian): > 100 µM | TGI (MALME-3M melanoma): > 100 µM | TGI (SK-OV-3 ovarian): > 100 µM | TGI (TK-10 renal): > 100 µM | TGI (KM12 colon): > 100 µM | TGI (CCRF-CEM leukemia): > 100 µM | TGI (SF-268 CNS): > 100 µM | TGI (HL-60(TB) leukemia): > 100 µM | TGI (SR leukemia): > 100 µM | TGI (SNB-75 CNS): > 100 µM | TGI (NCI-H460 lung): > 100 µM | TGI (MCF7 breast): > 100 µM | TGI (EKVX NSCLC): > 100 µM | TGI (MOLT-4 leukemia): > 100 µM | TGI (SF-295 CNS): > 100 µM | TGI (OVCAR-8 ovarian): > 100 µM | TGI (UACC-62 melanoma): > 100 µM | TGI (PC-3 prostate): > 100 µM | TGI (ACHN renal): > 100 µM | TGI (786-0 renal): > 100 µM | TGI (SK-MEL-28 melanoma): > 100 µM | TGI (OVCAR-4 ovarian): > 100 µM | TGI (HT29 colon): > 100 µM | TGI (NCI-H522 lung): > 100 µM | TGI (A498 renal): > 100 µM | TGI (A549 NSCLC): > 100 µM | TGI (K-562 leukemia): > 100 µM | TGI (RXF 393 renal): > 100 µM | TGI (T-47D breast): > 100 µM | TGI (RPMI-8226 leukemia): 68.6 µM | TGI (M14 melanoma): > 100 µM | TGI (HOP-92 NSCLC): > 100 µM | TGI (SK-MEL-5 melanoma): > 100 µM | TGI (NCI-H23 lung): > 100 µM | TGI (OVCAR-3 ovarian): > 100 µM | TGI (MDA-MB-435): > 100 µM | TGI (HCT-116 colon): > 100 µM | TGI (CAKI-1 renal): > 100 µM | TGI (SN12C renal): > 100 µM | TGI (SF-539 CNS): > 100 µM | TGI (NCI-H226 lung): > 100 µM | TGI (SK-MEL-2 melanoma): > 100 µM | TGI (COLO 205 colon): > 100 µM | TGI (NCI/ADR-RES ovarian): > 100 µM | TGI (UO-31 renal): > 100 µM | TGI (IGROV1 ovarian): > 100 µM | TGI (SNB-19 CNS): > 100 µM | TGI (U251 CNS): > 100 µM | TGI (HOP-62 NSCLC): > 100 µM
